Data from US9606120B2, “Interfering peptides and method for detecting microorganisms” (BIOMÉRIEUX, priority 2012, dated 2017).

System: antibodies directed against the HCV Core, NS3 and NS4 proteins
Assay: Vidas anti-HCV antibody immunoenzymatic test (Operating Mode 1) carried out with interfering peptide added
Design: species or system human; key to Index: signal / standard S1 value; index ≥1 positive, <1 negative
Details: for Index: pos indices ≧1
Method: The disposable tip (SPR®) acts both as a solid phase and as a pipetting system. The surface of the tip is coated with antigens for the detection of antibodies directed against the HCV Core, NS3 and NS4 proteins. In a first step, the sample is diluted, and then suctioned up and down inside the tip. The anti-HCV antibodies present in the sample will bind to the antigens present inside the tip. Washing steps remove the unbound compounds. During the second step, (mouse) anti-human immunoglobulin (anti-IgG) monoclonal IgGs in Fab′ form, conjugated to recombinant alkaline phosphatase, are suctioned up and down inside the tip and will bind to the anti-HCV human Igs from the sample tested, bound to the antigens of the solid phase. Washing steps again remove the unbound compounds. […] The value of the fluorescence signal is proportional to the concentration of the antibody present in the sample. At the end of the test, the results are calculated automatically in the form of an index by the instrument, by dividing the value obtained by the value of the standard S1 brought back to 1 (value stored in the instrument). Thus, a sample of which the index is greater than or equal to 1 is considered to be positive by the immunoenzymatic test (presence of anti-HCV antibodies) and a sample of which the index is less than 1 is considered to be negative (absence of anti-HCV antibodies). In the paragraphs which follow, this HCV-antibody assay procedure will be referred to as “Operating Mode 1”, which corresponds to the assaying of anti-HCV antibodies without interfering peptide.
Several hundred serum samples, negative for HCV infection and originating from the Rhône-Alpes “Centres de Transfusion Sanguine” [Blood Banks], were screened in order to identify the samples which posed an interference problem. To do this, the samples were assayed according to Operating Mode 1 using the Vidas automated device. Only the sera that were positive according to Operating Mode 1 (index ≧1) were selected.
Such a difference between the result of Operating Mode 1 and that of the negative status established by the “Centres de Transfusion Sanguine” [Blood Banks] makes it possible to select the false-positive sera posing an interference problem.
Table 1 gives, for seven sera posing an interference problem and for the positive control C1, the results of assays carried out according to “Operating Mode 1” with or without the presence of the peptide V7E (SEQ ID No 2) or of the peptide Y7E (SEQ ID No 1). These peptides were added at a concentration of 5 μg/ml during the first step of the immunoenzymatic test protocol which corresponds to the dilution of the sample to be tested and the incubation thereof with the antigens present on the solid phase.
Likewise, table 2 gives, for two other sera posing an interference problem and for the positive control, the results of assays carried out according to Operating Mode 1 of the anti-HCV antibody detection protocol, with or without the presence of the peptide E8E (SEQ ID No 4), of the peptide A8E (SEQ ID No 3), or else of the peptide A6M (SEQ ID No 9). These peptides were added at a concentration of 1 μg/ml during the first step of the immunoenzymatic test protocol, which corresponds to the dilution of the sample to be tested, and the incubation thereof with the antigens present on the solid phase.

[1] = false-positive serum 295 (sample with interference), peptide 1 μg/ml in first step
[2] = false-positive serum F25 (sample with interference), peptide 1 μg/ml in first step
[3] = positive control C1 (commercial serum pool), peptide 1 μg/ml in first step
[4] = two sera posing an interference problem, peptide 1 μg/ml
[5] = false-positive serum 175 1811 (sample with interference), peptide 5 μg/ml in first step
[6] = false-positive serum 284 2408 (sample with interference), peptide 5 μg/ml in first step
[7] = false-positive serum 498 (sample with interference), peptide 5 μg/ml in first step
[8] = false-positive serum 801 1409 (sample with interference), peptide 5 μg/ml in first step
[9] = false-positive serum F53 3009 (sample with interference), peptide 5 μg/ml in first step
[10] = false-positive serum H48 (sample with interference), peptide 5 μg/ml in first step
[11] = false-positive serum M43 (sample with interference), peptide 5 μg/ml in first step
[12] = positive control C1 (commercial serum pool), peptide 5 μg/ml in first step
[13] = seven sera posing an interference problem, peptide 5 μg/ml

Row | Sequence | Index [1] | Index [2] | Index [3] | sera in which the interference is neutralized [4] | Index [5] | Index [6] | Index [7] | Index [8] | Index [9] | Index [10] | Index [11] | Index [12] | sera in which the interference is neutralized [13]
1 | ECSQHLPYIE (HCV) [E8E, amino acids 53-54 of HCV NS4A fused to amino acids 1-8 of HCV NS4B] | 0.90 | 0.85 | 2.92 | 2/2 |  |  |  |  |  |  |  |  | 
2 | VSPTHYVPE (HCV) [V7E, amino acids 218-226 of the NS4B protein of HCV] |  |  |  |  | 0.49 | 1.51 | 0.35 | 1.04 | 0.39 | 1.17 | 0.42 | 3.06 | 4/7
3 | YSPTHYVPE (staphylococcus) [Y7E] |  |  |  |  | 0.47 | 0.86 | 0.14 | 0.71 | 0.32 | 0.88 | 0.17 | 3.02 | totally neutralize the interference in all the sera
4 | APYIEKGM (Streptococcus) [A6M, Streptococcus pneumoniae peptide, not according to the invention, used as a negative control, reference compound] | 1.04 | 2.90 | 3.05 | does not make it possible to neutralize the interference, in any of the sera |  |  |  |  |  |  |  |  | 
5 | AQKRLAPYIE (Streptoccus) [A8E, amino acids 64-73 of Streptococcus pneumoniae ribosomal small subunit methyltransferase H protein] | 0.95 | 0.41 | 3.02 | 2/2 |  |  |  |  |  |  |  |  | 
